Patent US7744867B2, “PTPase inhibitors and method of using same” (The Cleveland Clinic Foundation, priority 2001, dated 2010)

Key:
recombinant PRL-3 = molecular target: T1, recombinant PRL-3 (Homo sapiens, UniProt O75365); experiment: In vitro PTPase assay with recombinant PRL (peptide or DiFMUP substrate); format: biochemical
T1 construct: made in house; host or cells: E. coli DH5α
Method: In vitro PTPase activities were measured using the commercial protein tyrosine phosphatase assay kit (UBI) following established procedure. […] 100 μl of Malachite Green solution was added and incubated for 5 minutes, and the absorbance at 660 nm was measured after 5 minutes.
Recombinant GST fusion proteins of human PRL-1, 2 and 3 phosphatases were purified with glutathione beads from DH5α bacteria transformed by pGEX vectors containing cDNA fragments encoding the human PRLs which were generated by RT-PCR from H9 cells and confirmed by sequence analysis. Activities of the purified recombinant PRL proteins in dephosphorylating DiFMUP in the absence or presence of various inhibitors were measured following established procedure.
To assess whether sodium stibogluconate is an inhibitor of oncogenic PRL phosphatases, its effects on the PTPase activity of recombinant PRLs were evaluated by in vitro PTPase assays.

GST/SHP-1 fusion protein = molecular target: T2, GST/SHP-1 fusion protein (Mus musculus, UniProt P29351); experiment: Reversibility of SHP-1 inhibition (washing of bead-bound GST/SHP-1); format: biochemical; conditions: preincubated with inhibitor, then washed
T2 construct: made in house
Excerpt: The beads were then washed 3 times in Tris buffer or without washing prior to in vitro PTPase assays.

[1] = system: DU145 human prostate carcinoma xenografts; experiment: Xenografts of human prostate carcinoma in nude mice, tumor volume; format: in vivo; conditions: day 25, IFNα 500,000 U s.c. daily, sodium stibogluconate 12 mg Sb s.c. daily, alone or combined
Excerpt: FIG. 11 illustrates that sodium stibogluconate appears to synergize with IFNα against WM9 human melanoma tumors in nude mice. IFNα or both on the growth of xenografts of human melanoma cell line WM9 and human prostate carcinoma cell line DU-145 in athymic nude mice. Nude mice of 4 weeks old were inoculated subcutaneously (s.c.) with WM9 human melanoma cells (3×10^6 cells/site) (A) or DU-145 human prostate cancer cells (2×10^6 cells/site) (B) on day 0. Starting on day 2, the mice were subjected to no treatment (Control) or treatment with IFNα (500,000 U, s.c., daily), sodium stibogluconate (12 mg, s.c., daily) or both (Combo). Tumor volume in the nude mice (4 mice/group, 2 tumors/mouse) was measured on the days as indicated. Tumor volume was calculated by the equation: (length×width^2)/2 to compare tumor growth rates. All mice survived by the end of the experiment. […]
For each of the cell lines, each of 16 mice received subcutaneous injection at the chest area of 3×10^6 cells/site (WM9) or 2×10^6 cells/site (DU145), two sites/mouse, on day 0. […] Tumor size was measured with a caliper to determine the two perpendicular diameters of each tumor. Tumor volume was calculated using the method of the NCI (length×width^2 in millimeters/2=volume in cubic millimeters).

U266 cells = experiment: Apoptotic cells by Annexin V/propidium iodide assay; format: cell-based, human; conditions: sodium stibogluconate 100 μg/ml, IFNα 1000 u/ml, 3 days, control 8%
Method: Detection of apoptotic cells by Annexin V/propidium iodide assay. Annexin V staining of exposed membrane phospholipid phosphatidylserine (PS) was done using the Annexin V assay kit (Pharmingen, San Diego, Calif.). Briefly, U266 or WM9 cells were cultured in the 10% FCS RPMI 1640 medium in the absence or presence of sodium stibogluconate, IFNα, or both for 3 days. Cells were then washed in PBS twice and stained in binding buffer (10 mM Hepes, pH 7.4; 140 mM NaCl; 2.5 mM CaCl2) containing Annexin V-FITC and propidium iodide for 15 min. The reaction was stopped by adding 10 volumes of binding buffer and analyzed by FACS (Becton Dickinson Facsvantage) or fluorescent microscopy.

[2] = system: U266 cells (Multiple myeloma); experiment: Growth inhibition of human tumor cell lines (MTT); format: cell-based; conditions: SS 12.5 μg/ml, IFNα 1,000 u/ml, alone or combined
Method: (§1) FIG. 8 illustrates growth inhibition of human cell lines of hematopoietic malignancies by sodium stibogluconate and/or IFNα: A and B. Growth of DS and DR cells cultured in the absence or presence of various amounts of sodium stibogluconate and/or IFNα (1,000 u/ml) for 3 days was measured by MTT assays; C. Percentage of growth inhibition of DR cells calculated from data in B; D. Percentage of growth inhibition of DR cells by IFNα (1,000 u/ml) and various amounts of sodium stibogluconate in day 6 cultures measured by MTT assays; E. Percentage of growth inhibition of U266 cells by IFNα (1,000 u/ml) and various amounts of sodium stibogluconate in day 6 cultures as measured by MTT assays.

[3] = system: DR cells (Burkitt's Lymphoma); experiment: Growth inhibition of human tumor cell lines (MTT); format: cell-based
Method: as §1

[4] = system: C42 cells (Prostate cancer); experiment: Growth inhibition of human tumor cell lines; format: cell-based; conditions: SS 12.5 μg/ml, IFNα 1,000 u/ml, alone or combined

T1 sequence (O75365 whole entry): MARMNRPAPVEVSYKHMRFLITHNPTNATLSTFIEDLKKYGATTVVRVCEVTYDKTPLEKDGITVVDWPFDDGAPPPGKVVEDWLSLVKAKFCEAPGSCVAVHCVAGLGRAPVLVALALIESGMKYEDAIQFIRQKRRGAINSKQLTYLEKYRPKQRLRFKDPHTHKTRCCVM
T2 sequence (P29351 whole entry, the tested form may be a part): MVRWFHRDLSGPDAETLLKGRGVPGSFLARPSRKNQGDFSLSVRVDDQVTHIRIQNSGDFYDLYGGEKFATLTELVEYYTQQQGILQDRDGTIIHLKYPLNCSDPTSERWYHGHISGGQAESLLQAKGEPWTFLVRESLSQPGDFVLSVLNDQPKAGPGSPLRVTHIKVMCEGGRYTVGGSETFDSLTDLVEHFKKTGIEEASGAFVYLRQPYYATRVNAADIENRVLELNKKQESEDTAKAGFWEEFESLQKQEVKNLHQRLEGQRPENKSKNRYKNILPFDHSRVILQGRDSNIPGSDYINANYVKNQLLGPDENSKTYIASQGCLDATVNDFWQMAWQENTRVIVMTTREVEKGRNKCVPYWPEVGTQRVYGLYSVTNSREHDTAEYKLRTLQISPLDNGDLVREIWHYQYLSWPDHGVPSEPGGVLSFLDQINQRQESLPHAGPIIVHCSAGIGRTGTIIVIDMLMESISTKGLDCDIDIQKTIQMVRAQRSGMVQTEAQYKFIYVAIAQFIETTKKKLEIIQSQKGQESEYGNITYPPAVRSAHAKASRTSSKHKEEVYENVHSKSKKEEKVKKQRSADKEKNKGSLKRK

Compound | inhibition of PRL-3 after prolonged pre-incubation (recombinant PRL-3; pre-incubation 30 or 60 minutes, 10 mg/ml) | reversibility of PRL-3 inactivation (recombinant PRL-3; washing process) | reversibility of SHP-1 inhibition (GST/SHP-1 fusion protein) | average tumor volume, of the control [1] | percentage of apoptotic cells (U266 cells) | % of growth inhibition by day 6 (±s.d.) [2] | % of growth inhibition by day 6 (±s.d.) ([3]; DR, SS 12.5 μg/ml, IFNα 1,000 u/ml, alone or combined) | growth inhibition of DR cells, day 3 ([3]; IFNα 1,000 u/ml alone or with various amounts of sodium stibogluconate, day 3) | % of growth inhibition by day 6 (±s.d.) [4]
O.O.O.O.O.O.O.O.O.O=C([O-])[C@@H]1[O][Sb]2([O-])([O][Sb]34([OH])[O][C@H]([C@H](O)CO)[C@H]([O]3)[C@H](C(=O)[O-])[O]4)[O][C@H]([C@H](O)CO)[C@@H]1[O]2.[Na+].[Na+].[Na+] [sodium stibogluconate] | nearly complete inactivation | not relieved | stable complexes | – | – | – | – | – | –
IFNα | – | – | – | approximately 70% | 16% | 78 (10) % | 39% | 19% | +19 (30) %
